{"source": "patent US20090280067A1", "about": "“CRYSTAL FORM OF 8-HYDROXY-5-[(1R)-1-HYDROXY-2-[[(1R)-2-(4-METHOXYPHENYL)-1-METHYLETHYL]AMINO]ETHYL]-2(1H)-QUINOLINONE MONOHYDROCHLORIDE” (Chiesi Farmaceutici S.p.A., priority 2008, published 2009)", "assay": "Stability studies: storage at room temperature under different relative humidity conditions, checked by XRPD pattern", "type": "physicochemical", "conditions": "25° C., 40%, 60%, 80%, 30%, 40% RH, 1 week each", "experimental": "The XRPD analyses were carried out on a PANanalytical X'pert Pro X-ray powder diffractometer using Cu Kα radiation. The instrument was equipped with a X'Celerator detector. A theta-two theta continuous scan from 2.5 degrees 2 theta to 40 degrees 2 theta was used. Each sample is prepared for analysis by placing it in a quartz sample holder. The XPRD patterns are reported in terms of degrees 2 theta (°2θ, accuracy ±0.1°), diffraction peak intensity (height, [cts]), full width at half maximum (FWHM, [°2θ]), interatomic spacing in angstroms (d-spacing, [Å]), and relative intensities (%). The relative intensity is recorded as the ratio of the peak intensity to that of the most intense peak.\nIn order to check its thermodynamic stability, the CHF 4226 crystal form E was stored at room temperature under different relative humidity (RH) conditions: • 40% RH. and 25° C. for 1 week • 60% RH. and 25° C. for 1 week • 80% RH and 25° C. for 1 week • 60% RH and 25° C. for 1 week • 40% RH and 25° C. for 1 week • 30% RH and 25° C. for 1 week • 40% RH and 25° C. for 1 week. The thermodynamic stability of all the samples was checked by recording their XPRD pattern.", "data": [{"smiles": "COc1ccc(C[C@@H](C)NC[C@H](O)c2ccc(O)c3[nH]c(=O)ccc23)cc1.Cl", "note": "[CHF 4226 crystal form E, 8-hydroxy-5-[(1R)-1-hydroxy-2-[[(1R)-2-(4-methoxyphenyl)-1-methylethyl]amino]ethyl]-2(1H)-quinolinone monohydrochloride]", "values": [{"measurement": "thermodynamic stability (XPRD pattern) after storage", "value": "stable features under all stability screening conditions"}]}]}
